Values quoted from earlier work, collected in patent US6949538B2, “Compounds, compositions, and methods” (Cytokinetics, Inc., priority 2002, dated 2005).

Test system: A549 cells
Details: data provided by National Cancer Institute, Developmental Therapeutic Program
In the case of `O=c1[nH]cc(F)c(=O)[nH]1` [5-fluorouracil], the GI50 is listed as 1 µM.
In the case of `COc1cccc2c1C(=O)c1c(O)c3c(c(O)c1C2=O)C[C@@](O)(C(=O)CO)C[C@@H]3O[C@H]1C[C@H](N)[C@H](O)[C@H](C)O1` [doxorubicin], the GI50 is listed as 0.063 µM.
In the case of `NC(=O)NO` [hydroxyurea], the GI50 is given as 500 µM.
For `CC(=O)O[C@H]1C(=O)[C@@]2(C)[C@H]([C@H](OC(=O)c3ccccc3)[C@]3(O)C[C@H](OC(=O)[C@H](O)[C@@H](NC(=O)c4ccccc4)c4ccccc4)C(C)=C1C3(C)C)[C@]1(OC(C)=O)CO[C@@H]1C[C@@H]2O` [paclitaxel], the GI50 is given as 0.004 µM.
